Reference: EP1277754B1, “IMIDAZOPYRIDINE DERIVATIVES” (YAMANOUCHI PHARMACEUTICAL CO. LTD., priority 2000, dated 2001)

Tests used:
[1] = test system: HCT116 cells; assay: Colon cancer cell growth inhibition (Alamar Blue); type: cell-based; settings: incubation over 72 hours, result in words
Experimental: Test Example 2 Colon cancer cell growth inhibition
HCT116 cells from a colon cancer cell line were cultured in McCoy's 5A medium (GIBCO) supplemented with 10% fetal bovine serum. HCTI 16 cells were inoculated on a 96 well plate (5000 cells/well) followed by overnight incubation. The test compound diluted with the medium was added to the medium in a final concentration of 0.1 to 30µM (final DMSO concentration, 1%). After incubation for over 72 hours, Alamar Blue reagent was added to the medium. Two hours after the addition, a ratio of fluorescent intensity at an excitation wavelength of 530 nm to that at an emission wavelength of 590 nm was measured to determine the IC50.

[2] = test system: A375 cells; assay: Melanoma cell growth inhibition (Alamar Blue); type: cell-based
Experimental: A375 cells from a melanoma cell line were cultured in DMEM medium (GIBCO) supplemented with 10% fetal bovine serum. A375 cells at 10,000 cells/100µl were added to a 96 well plate which contained 1 µl/well of the test compounds (final concentration of 0.001 ~ 30µM). After incubation for over 46 hours, Alamar Blue reagent was added to the medium (10µl/well). Two hours after the addition, a ratio of fluorescent intensity at an excitation wavelength of 530 nm to that at an emission wavelength of 590 nm was measured to determine the IC50 of the test compounds in the same manner as in the above examples.

[3] = Homo sapiens, A-375, incubation over 46 hours

Structure (SMILES)	cancer cell growth inhibition activity [1]	IC50 [2, 3]	IC50 ([2]; incubation over 46 hours)
Cc1ccc([N+](=O)[O-])cc1S(=O)(=O)n1ccc(-c2c(C)nc3ccc(Br)cn23)n1 [Compound 6, 3-(6-Bromo-2-methylimidazo[1,2-a]pyridin-3-yl)-1H-pyrazol-1-yl 2-methyl-5-nitrophenyl sulfone]	good cancer cell growth inhibition activity	< 1000 nM	–
Cc1ccc([N+](=O)[O-])cc1S(=O)(=O)n1ccc(-c2cnc3ccc(Br)cn23)n1 [Compound 30, 3-(6-bromoimidazo[1,2-a]pyridin-3-yl)-1H-pyrazol-1-yl 2-methyl-5-nitrophenyl sulfone]	–	< 1000 nM	–
Cc1ccc([N+](=O)[O-])cc1S(=O)(=O)N(C)N=Cc1cnc2ccc(Br)cn12 [Compound 43, 2'-[(6-bromoimidazo[1,2-a]pyridin-3-yl)methylidene]-1',2-dimethyl-5-nitrobenzenesulfonohydrazide]	–	< 1000 nM	–
CCc1ccc([N+](=O)[O-])cc1S(=O)(=O)N(C)N=Cc1cnc2ccc(Br)cn12 [Compound 53, 2'-[(6-bromoimidazo[1,2-a]pyridin-3-yl)methylidene]-2-ethyl-1'-methyl-5-nitrobenzenesulfonohydrazide]	–	< 1000 nM	–
Cc1ccc(C#N)cc1S(=O)(=O)N(C)N=Cc1cnc2ccc(Br)cn12 [Compound 54, 3-({2-[(6-bromoimidazo[1,2-a]pyridin-3-yl)methylidene]-1-methylhydrazino}sulfonyl)-4-methylbenzonitrile]	–	< 1000 nM	–
Cc1ccc([N+](=O)[O-])cc1S(=O)(=O)N(C)N=Cc1cnc2ccc(F)cn12 [Compound 57, 2'-[(6-fluoroimidazo[1,2-a]pyridin-3-yl)methylidene]-1',2-dimethyl-5-nitrobenzenesulfonohydrazide]	–	< 1000 nM	–
CN(N=Cc1cnc2ccc(Cl)cn12)S(=O)(=O)c1cc([N+](=O)[O-])ccc1N [Compound 59, 2-amino-2'-[(6-chloroimidazo[1,2-a]pyridin-3-yl)methylidene]-1'-methyl-5-nitrobenzenesulfonohydrazide]	–	< 1000 nM	–
CN(N=Cc1cnc2ccc(Cl)cn12)S(=O)(=O)c1cc([N+](=O)[O-])ccc1OCC(F)(F)F [Compound 60, 2'-[(6-chloroimidazo[1,2-a]pyridin-3-yl)methylidene]-1'-methyl-5-nitro-2-(2,2,2-trifluoroethoxy)benzenesulfonohydrazide]	–	< 1000 nM	–
Cc1ccc([N+](=O)[O-])cc1S(=O)(=O)c1nc(-c2cnc3ccc(Cl)cn23)cs1 [Compound 65, 6-chloro-3-[2-(2-methyl-5-nitrobenzenesulfonyl)thiazol-4-yl]imidazo[1,2-a]pyridine]	–	< 1000 nM	–
Cc1ccc([N+](=O)[O-])cc1S(=O)(=O)N(CCN1CCOCC1)N=Cc1cnc2ccc(Br)cn12 [Compound 77, 6-bromo-3-{[(2-methyl-5-nitrobenzenesulfonyl)(2-morpholinoethyl)hydrazono]methyl}imidazo[1,2-a]pyridine]	–	< 1000 nM	–
Cc1ccc([N+](=O)[O-])cc1S(=O)(=O)N(C)N=Cc1cnc2ccc(Cl)cn12 [Compound 88, 6-chloro-3-{[(methyl)(2-methyl-5-nitrobenzenesulfonyl)hydrazono]methyl}imidazo[1,2-a]pyridine]	–	< 1000 nM	–
Cc1ccc([N+](=O)[O-])cc1S(=O)(=O)N(C)N=Cc1cnc2ccc(C#N)cn12 [Compound 93, 3-{[(methyl)(2-methyl-5-nitrobenzenesulfonyl)hydrazono]methyl}imidazo[1,2-a]pyridine-6-carbonitrile]	–	< 1000 nM	–
Cc1ccc(C#N)cc1S(=O)(=O)N(C)N=Cc1cnc2ccc(F)cn12 [Compound 95, 5-cyano-2'-[(6-fluoroimidazo[1,2-a]pyridin-3-yl)methylidene]-1',2-dimethylbenzenesulfonohydrazide]	–	< 1000 nM	–
Cc1ccc(C#N)cc1S(=O)(=O)N(C)N=Cc1cnc2ccc(C#N)cn12 [Compound 96, 5-cyano-2'-[(6-cyanoimidazo[1,2-a]pyridin-3-yl)methylidene]-1',2-dimethylbenzenesulfonohydrazide]	–	< 1000 nM	–
Cc1ccc2ncc(C=NN(C)S(=O)(=O)c3cc([N+](=O)[O-])ccc3C)n2c1 [Compound 99, 1'2-dimethyl-2'-[(6-methylimidazo[1,2-a]pyridin-3-yl)methylidene]-5-nitrobenzenesulfonohydrazide]	–	–	< 1000 nM
CN(N=Cc1cnc2ccc(Cl)cn12)S(=O)(=O)c1cc([N+](=O)[O-])ccc1-n1ccnc1 [Compound 112, 2'-[(6-chloroimidazo[1,2-a]pyridin-3-yl)methylidene]-2-(1H-imidazol-1-yl)-1'-methyl-5-nitrobenzenesulfonohydrazide]	–	< 1000 nM	–
CN(C)c1ccc([N+](=O)[O-])cc1S(=O)(=O)N(C)N=Cc1cnc2ccc(Cl)cn12 [Compound 113, 2'-[(6-chloroimidazo[1,2-a]pyridin-3-yl)methylidene]-2-dimethylamino-1'-methyl-5-nitrobenzenesulfonohydrazide]	–	< 1000 nM	–
